Measured values: PubChem BioAssay AID2060887 (Molecular Pharmacology Branch, DTP, NCI, 2025)

System: 782815-120-R-J1-PDC complex spheroid viability
Test: Anticancer human tumor 782815-120-R-J1-PDC patient-derived colon adenocarcinoma cell line growth inhibition [RAS]
Settings: for IC50: curve of first compound; for viability, T/C: stronger effect = lower value
How it was run: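 Agents were tested in combination matrices in half-log decrements from a top concentration at or near clinical Cmax (10 microM if undetermined). Targets were multi-cell spheroids of tumour lines plus HUVEC and MSC stromal cells.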

[1] = second compound 0.0316 µM, first compound 0.00316 µM
[2] = second compound 0.0316 µM, first compound 0.01 µM
[3] = second compound 0.0316 µM, first compound 0.0316 µM
[4] = second compound 0.0316 µM, first compound 0.1 µM
[5] = second compound 0.0316 µM, first compound 0.316 µM
[6] = second compound 0.0316 µM, first compound 1 µM
[7] = second compound 0.1 µM, first compound 0.00316 µM
[8] = second compound 0.1 µM, first compound 0.01 µM
[9] = second compound 0.1 µM, first compound 0.0316 µM
[10] = second compound 0.1 µM, first compound 0.1 µM
[11] = second compound 0.1 µM, first compound 0.316 µM
[12] = second compound 0.1 µM, first compound 1 µM
[13] = second compound 0.316 µM, first compound 0.00316 µM
[14] = second compound 0.316 µM, first compound 0.01 µM
[15] = second compound 0.316 µM, first compound 0.0316 µM
[16] = second compound 0.316 µM, first compound 0.1 µM
[17] = second compound 0.316 µM, first compound 0.316 µM
[18] = second compound 0.316 µM, first compound 1 µM
[19] = second compound 1 µM, first compound 0.00316 µM
[20] = second compound 1 µM, first compound 0.01 µM
[21] = second compound 1 µM, first compound 0.0316 µM
[22] = second compound 1 µM, first compound 0.1 µM
[23] = second compound 1 µM, first compound 0.316 µM
[24] = second compound 1 µM, first compound 1 µM
[25] = second compound 0.0316 µM, first compound 0.000949 µM
[26] = second compound 0.0316 µM, first compound 0.003 µM
[27] = second compound 0.0316 µM, first compound 0.00949 µM
[28] = second compound 0.0316 µM, first compound 0.03 µM
[29] = second compound 0.0316 µM, first compound 0.0949 µM
[30] = second compound 0.0316 µM, first compound 0.3 µM
[31] = second compound 0.1 µM, first compound 0.000949 µM
[32] = second compound 0.1 µM, first compound 0.003 µM
[33] = second compound 0.1 µM, first compound 0.00949 µM
[34] = second compound 0.1 µM, first compound 0.03 µM
[35] = second compound 0.1 µM, first compound 0.0949 µM
[36] = second compound 0.1 µM, first compound 0.3 µM
[37] = second compound 0.316 µM, first compound 0.000949 µM
[38] = second compound 0.316 µM, first compound 0.003 µM
[39] = second compound 0.316 µM, first compound 0.00949 µM
[40] = second compound 0.316 µM, first compound 0.03 µM
[41] = second compound 0.316 µM, first compound 0.0949 µM
[42] = second compound 0.316 µM, first compound 0.3 µM
[43] = second compound 1 µM, first compound 0.000949 µM
[44] = second compound 1 µM, first compound 0.003 µM
[45] = second compound 1 µM, first compound 0.00949 µM
[46] = second compound 1 µM, first compound 0.03 µM
[47] = second compound 1 µM, first compound 0.0949 µM
[48] = second compound 1 µM, first compound 0.3 µM
[49] = second compound 3.16 µM, first compound 0.000949 µM
[50] = second compound 3.16 µM, first compound 0.003 µM
[51] = second compound 3.16 µM, first compound 0.00949 µM
[52] = second compound 3.16 µM, first compound 0.03 µM
[53] = second compound 3.16 µM, first compound 0.0949 µM
[54] = second compound 3.16 µM, first compound 0.3 µM
[55] = second compound 10 µM, first compound 0.000949 µM
[56] = second compound 10 µM, first compound 0.003 µM
[57] = second compound 10 µM, first compound 0.00949 µM
[58] = second compound 10 µM, first compound 0.03 µM
[59] = second compound 10 µM, first compound 0.0949 µM
[60] = second compound 10 µM, first compound 0.3 µM
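Also: spheroids exposed to compounds for 7 days before reading.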
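For viability, T/C in this document: 100% = DMSO vehicle control viability.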

## C=CC(=O)N1CCN(c2nc(OCC3CCCN3C)nc3c(F)c(-c4nc(N)cc(C)c4C(F)(F)F)c(Cl)cc23)C(C)C1 (stereo not drawn) + C#Cc1c(F)ccc2cc(O)cc(-c3ncc4c(N5CC6CCC(C5)N6)nc(OCC56CCCN5CC(F)C6)nc4c3F)c12
Second compound 0.0316 µM
  IC50: > 1000 nM
Second compound 0.1 µM
  IC50: > 1000 nM
Second compound 0.316 µM
  IC50: > 1000 nM
Second compound 1 µM
  IC50: > 1000 nM
Second compound 3.16 µM
  IC50: > 1000 nM
Second compound 10 µM
  IC50: > 1000 nM
[1]
  viability, T/C: 98.9%
[2]
  viability, T/C: 86.9%
[3]
  viability, T/C: 103%
[4]
  viability, T/C: 92.5%
[5]
  viability, T/C: 96.9%
[6]
  viability, T/C: 97%
[7]
  viability, T/C: 97.3%
[8]
  viability, T/C: 93.1%
[9]
  viability, T/C: 97.5%
[10]
  viability, T/C: 94%
[11]
  viability, T/C: 97%
[12]
  viability, T/C: 101%
[13]
  viability, T/C: 92.6%
[14]
  viability, T/C: 94.7%
[15]
  viability, T/C: 89.2%
[16]
  viability, T/C: 91.8%
[17]
  viability, T/C: 98.4%
[18]
  viability, T/C: 84.4%
[19]
  viability, T/C: 95.5%
[20]
  viability, T/C: 94.6%
[21]
  viability, T/C: 94%
[22]
  viability, T/C: 99.2%
[23]
  viability, T/C: 101%
[24]
  viability, T/C: 98.3%
Second compound 3.16 µM, first compound 0.00316 µM
  viability, T/C: 97.3%
Second compound 3.16 µM, first compound 0.01 µM
  viability, T/C: 91.7%
Second compound 3.16 µM, first compound 0.0316 µM
  viability, T/C: 95.9%
Second compound 3.16 µM, first compound 0.1 µM
  viability, T/C: 105%
Second compound 3.16 µM, first compound 0.316 µM
  viability, T/C: 101%
Second compound 3.16 µM, first compound 1 µM
  viability, T/C: 90.5%
Second compound 10 µM, first compound 0.00316 µM
  viability, T/C: 106%
Second compound 10 µM, first compound 0.01 µM
  viability, T/C: 104%
Second compound 10 µM, first compound 0.0316 µM
  viability, T/C: 93.6%
Second compound 10 µM, first compound 0.1 µM
  viability, T/C: 99.6%
Second compound 10 µM, first compound 0.316 µM
  viability, T/C: 104%
Second compound 10 µM, first compound 1 µM
  viability, T/C: 91.1%

## CC1(C)CCC(Nc2ncc(C(F)(F)F)c(-c3c[nH]c4c(P(C)(C)=O)c(C#N)ccc34)n2)CN1 (stereo not drawn) + C#Cc1c(F)ccc2cc(O)cc(-c3ncc4c(N5CC6CCC(C5)N6)nc(OCC56CCCN5CC(F)C6)nc4c3F)c12
Second compound 0.0316 µM
  IC50: > 300 nM
Second compound 0.1 µM
  IC50: > 300 nM
Second compound 0.316 µM
  IC50: > 300 nM
Second compound 1 µM
  IC50: > 300 nM
Second compound 3.16 µM
  IC50: > 300 nM
Second compound 10 µM
  IC50: > 300 nM
[25]
  viability, T/C: 98.2%
[26]
  viability, T/C: 101%
[27]
  viability, T/C: 90.6%
[28]
  viability, T/C: 65.4%
[29]
  viability, T/C: 58.1%
[30]
  viability, T/C: 60.2%
[31]
  viability, T/C: 93.2%
[32]
  viability, T/C: 98.4%
[33]
  viability, T/C: 84.4%
[34]
  viability, T/C: 70.2%
[35]
  viability, T/C: 61.2%
[36]
  viability, T/C: 56.9%
[37]
  viability, T/C: 96.5%
[38]
  viability, T/C: 92.9%
[39]
  viability, T/C: 90.4%
[40]
  viability, T/C: 64.8%
[41]
  viability, T/C: 61.8%
[42]
  viability, T/C: 57.9%
[43]
  viability, T/C: 95%
[44]
  viability, T/C: 99.6%
[45]
  viability, T/C: 74.7%
[46]
  viability, T/C: 65.2%
[47]
  viability, T/C: 64.3%
[48]
  viability, T/C: 58.5%
[49]
  viability, T/C: 90.8%
[50]
  viability, T/C: 94.1%
[51]
  viability, T/C: 80%
[52]
  viability, T/C: 65.2%
[53]
  viability, T/C: 57.6%
[54]
  viability, T/C: 63.5%
[55]
  viability, T/C: 93.9%
[56]
  viability, T/C: 98.8%
[57]
  viability, T/C: 75.4%
[58]
  viability, T/C: 69.6%
[59]
  viability, T/C: 65%
[60]
  viability, T/C: 60.4%

## CCc1c2c(nc3ccc(O)cc13)-c1cc3c(c(=O)n1C2)COC(=O)[C@]3(O)CC + C#Cc1c(F)ccc2cc(O)cc(-c3ncc4c(N5CC6CCC(C5)N6)nc(OCC56CCCN5CC(F)C6)nc4c3F)c12
Second compound 0.0316 µM
  IC50: 4.66 nM
Second compound 0.1 µM
  IC50: 4.39 nM
Second compound 0.316 µM
  IC50: 4.86 nM
Second compound 1 µM
  IC50: 4.76 nM
Second compound 3.16 µM
  IC50: 4.2 nM
Second compound 10 µM
  IC50: 4.39 nM
[25]
  viability, T/C: 94.9%
[26]
  viability, T/C: 67.9%
[27]
  viability, T/C: 20.8%
[28]
  viability, T/C: 9.58%
[29]
  viability, T/C: 4.66%
[30]
  viability, T/C: 1.46%
[31]
  viability, T/C: 98.9%
[32]
  viability, T/C: 64%
[33]
  viability, T/C: 21.4%
[34]
  viability, T/C: 10.5%
[35]
  viability, T/C: 4.8%
[36]
  viability, T/C: 1.59%
[37]
  viability, T/C: 96.9%
[38]
  viability, T/C: 69.3%
[39]
  viability, T/C: 22.6%
[40]
  viability, T/C: 10.5%
[41]
  viability, T/C: 3.58%
[42]
  viability, T/C: 1.52%
[43]
  viability, T/C: 99.9%
[44]
  viability, T/C: 67.4%
[45]
  viability, T/C: 23.6%
[46]
  viability, T/C: 9.52%
[47]
  viability, T/C: 3.42%
[48]
  viability, T/C: 1.25%
[49]
  viability, T/C: 99.3%
[50]
  viability, T/C: 61.9%
[51]
  viability, T/C: 21%
[52]
  viability, T/C: 8.73%
[53]
  viability, T/C: 3.05%
[54]
  viability, T/C: 1.2%
[55]
  viability, T/C: 102%
[56]
  viability, T/C: 64%
[57]
  viability, T/C: 21%
[58]
  viability, T/C: 11.2%
[59]
  viability, T/C: 2.93%
[60]
  viability, T/C: 0.95%

## C=CC(=O)Nc1cc(Nc2nccc(-c3cn(C)c4ccccc34)n2)c(OC)cc1N(C)CCN(C)C + C=CC(=O)N1CCN(c2nc(OCC3CCCN3C)nc3c(F)c(-c4nc(N)cc(C)c4C(F)(F)F)c(Cl)cc23)C(C)C1
Second compound 0.00316 µM
  IC50: > 1000 nM
Second compound 0.01 µM
  IC50: > 1000 nM
Second compound 0.0316 µM
  IC50: > 1000 nM
Second compound 0.1 µM
  IC50: > 1000 nM
Second compound 0.316 µM
  IC50: > 1000 nM
Second compound 1 µM
  IC50: > 1000 nM
Second compound 0.00316 µM, first compound 0.00316 µM
  viability, T/C: 92.7%
Second compound 0.00316 µM, first compound 0.01 µM
  viability, T/C: 98.3%
Second compound 0.00316 µM, first compound 0.0316 µM
  viability, T/C: 101%
Second compound 0.00316 µM, first compound 0.1 µM
  viability, T/C: 95%
Second compound 0.00316 µM, first compound 0.316 µM
  viability, T/C: 92.9%
Second compound 0.00316 µM, first compound 1 µM
  viability, T/C: 99.8%
Second compound 0.01 µM, first compound 0.00316 µM
  viability, T/C: 91.9%
Second compound 0.01 µM, first compound 0.01 µM
  viability, T/C: 92%
Second compound 0.01 µM, first compound 0.0316 µM
  viability, T/C: 91.8%
Second compound 0.01 µM, first compound 0.1 µM
  viability, T/C: 91.6%
Second compound 0.01 µM, first compound 0.316 µM
  viability, T/C: 93.8%
Second compound 0.01 µM, first compound 1 µM
  viability, T/C: 91%
[1]
  viability, T/C: 98.3%
[2]
  viability, T/C: 101%
[3]
  viability, T/C: 98.1%
[4]
  viability, T/C: 92.1%
[5]
  viability, T/C: 92.9%
[6]
  viability, T/C: 88.5%
[7]
  viability, T/C: 100%
[8]
  viability, T/C: 88.6%
[9]
  viability, T/C: 96%
[10]
  viability, T/C: 92.9%
[11]
  viability, T/C: 109%
[12]
  viability, T/C: 90.7%
[13]
  viability, T/C: 101%
[14]
  viability, T/C: 95.1%
[15]
  viability, T/C: 92.3%
[16]
  viability, T/C: 95.6%
[17]
  viability, T/C: 93.9%
[18]
  viability, T/C: 91.6%
[19]
  viability, T/C: 96.6%
[20]
  viability, T/C: 90.1%
[21]
  viability, T/C: 90.3%
[22]
  viability, T/C: 96%
[23]
  viability, T/C: 93.4%
[24]
  viability, T/C: 91.7%
